Our source for the IC50 values is PubChem BioAssay AID1628 (Sanford-Burnham Center for Chemical Genomics, 2009).

This assay concerns MIN6 insulin promoter GFP reporter, high-content imaging. Nature of the assay: insulin promoter down-regulators in MIN6 cells, imaging, high-content screening, mouse beta cells (AID 1628).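 Note: potency for lowering insulin promoter GFP signal so compounds are inhibitors.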

The structures appear in SMILES notation. Values joined by “and” are separate entries in the source; they are usually repeats but may differ in a detail not shown here. Equal values may be shown once.

Usually IC50 stands for the concentration that gives 50% inhibition. For `CN(C)c1ccnc2c[cH-]cc12.[Fe].c1ccc(-[c-]2[c-](-c3ccccc3)[c-](-c3ccccc3)[c-](-c3ccccc3)[c-]2-c2ccccc2)cc1` (stereo unspecified), the IC50 is 2.63 µM and 1.62 µM.
